According to patent US20190119193A1, “COMPOSITION FOR REGULATING PLANT GROWTH, METHOD FOR TREATING PLANTS THEREWITH, AND ACTIVE INGREDIENT THEREOF” (Ivan Aleksandrovich Starikov, priority 2016, published 2019):
Each block holds one compound with its values, some of them ahead of it.

How the values were obtained:
[1] = Dilution of DMSO solution (10 g/L) in water; assay type: physicochemical; details: solution in DMSO (10 g/L) diluted in large quantities of water
[2] = system: spring wheat of “Zlata” variety; test: Field tests of GS-200 on wheat; assay type: in vivo
Description: After that GS-200 were dissolved in dimethyl sulfoxide to give solution of 10 g/L concentration, then water was added to give aqueous solutions of GS-200 with concentrations of 5.3·10^−7 M, 1.7·10^−8 M, 5.3·10^−9 M, 1.7·10^−10 M, 5.3·10^−11 M, 1.7·10^−12 M.
The field tests of the obtained aqueous solutions of GS-200 on spring wheat of “Zlata” variety were carried out. The tests were carried out in agroclimatic zone I, on the experimental field of the Moscow RIA «Nemchinovka» Agricultural technology center's Laboratory for the Development of Grain Protection Systems (Moscow region, Odintsovo district, Novoivanovskoe, 2017), according to the method adopted for registration tests of plant growth regulators: Methodology guidelines for approval tests of new fertilizers, bioregulators and plant regulators. Moscow-Vladimir, 2009, p. 104; State procedure of strain tests for agricultural crop. Corny, leguminous and forage cultures. Edition 1, M., 1985—p. 269, Edition 2, M., 1989—p. 194; State procedure of strain tests for agricultural crop. Corny, leguminous and forage cultures. Edition 1, M., 1985—p. 269, Edition 2, M., 1989—p. 194; All-Union Standard 10-108-87; All-Union State Standard 26212-91; All-Union State Standard 26207-91; All-Union Standard 10-108-87.
The soil of the testing ground is sod-podzolic on the covering silt. The depth of the topsoil is 27-30 centimeters, humus content is up to 2.2%, pHsalt is about 5.8-5.9, labile phosphorus index is 135-145 mg/kg, and exchange potassium index is 100-110 mg/kg.
Tests were conducted from Apr. 24 to Aug. 17, 2017. The weather conditions of the whole growing period were highly unfavorable (normal amount of precipitations was exceeded more than one and a half times; the temperature was much lower than long-term annual average), which is a strong stress factor.
Control test—without treatment with growth regulators.
Area of experimental plots—50 m^2, accounting area—40 m^2. Fourfold replication of the experiments.
Preceding crop was winter wheat. Immediately after the autumn harvesting of winter crops the area was treated with disc harrow to a depth of 10-12 cm. Then, fall plowing to a depth of 18-21 cm by a reverse plow and harrowing were carried out.
Before seeding the test crop, the soil was fertilized with nitrogen-phosphorus-potassium fertilizer in a dose of N64P64K64. Date of sowing: Apr. 24, 2017. Seeding rate: 5.5 million of germinated grains per 1 hectare.
Before seeding, all the seeds were treated with “Vincite Forte” fungicide with a consumption rate of 0.8 L per ton of seeds, as well as the aqueous solution of GS-200 selected for the experiment with a consumption rate of 10 L per ton of seeds (this aqueous solution was directly used as a liquid for treatment) or without a growth regulator, depending on the experiment. The following concentrations of the GS-200 solutions were used for treatment: 5.3·10^−7 M, 5.3·10^−9 M, […].
At the tillering phase (May 29-30) the crops were sprayed against weeds with “Linthur” herbicide at a dose of 175.0 g/ha. In the beginning of booting stage (June 12-13), in order to prevent blasts and leaf diseases, crops were sprayed with tank mixture of insecticide “BoreiNeo” in a dose 0.5 L/ha and fungicide “Alto Super” in a dose 0.5 L/ha. In the beginning of ear stage (June 28) crops on the testing ground were sprayed with tank mixture of fungicide “Rakurs” (against Septoria blight and Fusarium blight) in a dose 0.5 L/ha and a solution of GS-200 in a dose 300 L/ha. Spraying with aqueous solutions of GS-200 was carried out for all variants, where GS-200 were used for seed treatment. The concentration of the spraying solution was one-thirtieth of the concentration of the solution previously used for treatment of seeds: 1.7·10^−8 M, 1.7·10^−10 M and 1.7·10^−12 M respectively.
Harvesting of experimental plots was carried out on August 17, before harvesting test sheaves of 0.25 m^2 of each variant of the experiment were selected for structural analysis. […]

[3] = seeds treated 5.3 · 10^−7 M, sprayed 1.7·10^−8 M
[4] = seeds treated 5.3 · 10^−9 M, sprayed 1.7·10^−10 M
[5] = seeds treated 5.3 · 10^−11 M, sprayed 1.7·10^−12 M

Appearance on dilution in water [1]: clear solution
Structure (SMILES): COC(=O)C(=O)C(C)C(=O)OC (centres unmarked) [GS-171, Dimethyl 2-methyl-3-oxobutanedioate]

Appearance on dilution in water [1]: clear solution
Structure (SMILES): COC(=O)C(=O)C(Cl)C(=O)OC (centres unmarked) [GS-172, Dimethyl 2-chloro-3-oxobutanedioate]

Appearance on dilution in water [1]: clear solution
Structure (SMILES): CCOC(=O)C(=O)C(Sc1ccc(C)cc1)C(=O)OCC (centres unmarked) [GS-184, Diethyl 2-[(4-Methylphenyl)Sulfanyl]-3-Oxobutanedioate]

Appearance on dilution in water [1]: clear solution
Structure (SMILES): CCOC(=O)CC(=O)C(=O)OCC [GS-195, Diethyl ester of oxaloacetic acid]

Appearance on dilution in water [1]: clear solution
Structure (SMILES): CCOC(=O)CC(=O)C(=O)O [GS-197, 4-Ethoxy-2,4-dioxobutanoic acid]

Appearance on dilution in water [1]: clear solution
Structure (SMILES): CCOC(=O)C(=O)C(C(=O)OCC)c1ccccc1 (centres unmarked) [GS-199, Diethyl 2-oxo-3-phenylbutanedioate]

Structure (SMILES): CCOC(=O)C(=O)CC(=O)N(C)C [GS-200, Ethyl 4-(dimethylamino)-2,4-dioxobutanoat]
1000 grains weight [2, 3]: 45.4 g
Gluten [2, 3]: 27.5 % dry basis
Main head length [2, 3]: 8.24 cm
Number of seeds from main head [2, 3]: 38.84 pcs
Number of spikelets in main head [2, 3]: 15.88 pcs
Number of stems [2, 3]: 450 pcs/m^2
Number of yielding stems [2, 3]: 398 pcs/m^2
Plant height [2, 3]: 121.1 cm
Productive tilling capacity [2, 3]: 1.46
Protein (N 5.7) [2, 3]: 12.21 % dry basis
Starch [2, 3]: 58.40 % dry basis
Total tilling capacity [2, 3]: 1.65
Weight of grains from main head [2, 3]: 1.89 g
Yield [2, 3]: 5.34 t/ha
Yield, % (comparing to control) [2, 3]: 124.8%
1000 grains weight [2, 4]: 47.2 g
Gluten [2, 4]: 26.0 % dry basis
Main head length [2, 4]: 8.20 cm
Number of seeds from main head [2, 4]: 37.40 pcs
Number of spikelets in main head [2, 4]: 15.56 pcs
Number of stems [2, 4]: 462 pcs/m^2
Number of yielding stems [2, 4]: 388 pcs/m^2
Plant height [2, 4]: 118.5 cm
Productive tilling capacity [2, 4]: 1.53
Protein (N 5.7) [2, 4]: 11.56 % dry basis
Starch [2, 4]: 58.66 % dry basis
Total tilling capacity [2, 4]: 1.82
Weight of grains from main head [2, 4]: 1.90 g
Yield [2, 4]: 5.37 t/ha
Yield, % (comparing to control) [2, 4]: 125.5%
1000 grains weight [2, 5]: 44.1 g
Gluten [2, 5]: 26.6 % dry basis
Main head length [2, 5]: 7.56 cm
Number of seeds from main head [2, 5]: 34.28 pcs
Number of spikelets in main head [2, 5]: 15.56 pcs
Number of stems [2, 5]: 398 pcs/m^2
Number of yielding stems [2, 5]: 360 pcs/m^2
Plant height [2, 5]: 118.7 cm
Productive tilling capacity [2, 5]: 1.71
Protein (N 5.7) [2, 5]: 11.82 % dry basis
Starch [2, 5]: 59.05 % dry basis
Total tilling capacity [2, 5]: 1.90
Weight of grains from main head [2, 5]: 1.60 g
Yield [2, 5]: 4.65 t/ha
Yield, % (comparing to control) [2, 5]: 108.6%
Appearance on dilution in water [1]: clear solution

Appearance on dilution in water [1]: clear solution
Structure (SMILES): CCOC(=O)C(=O)CC(=O)N(CC)CC [GS-202, Ethyl 4-(diethylamino)-2,4-dioxobutanoat]

Appearance on dilution in water [1]: clear solution
Structure (SMILES): CCN(CC)C(=O)CC(=O)C(N)=O [GS-203, N^4,N^4-Diethyl-2-oxobutanediamide]

Appearance on dilution in water [1]: clear solution
Structure (SMILES): CN(C)C(=O)C(=O)CC(=O)N(C)CCO [GS-214, N^4-(2-hydroxyethyl)-N^1,N^1,N^4-trimethyl-2-oxobutanediamide]

Appearance on dilution in water [1]: clear solution
Structure (SMILES): CCOC(=O)C(=O)CC(C)=O [GS-300, Ethyl 2,4-dioxovalerate]

Appearance on dilution in water [1]: clear solution
Structure (SMILES): CCOC(=O)C(=O)CC(=O)c1ccccc1 [GS-310, Ethyl 2,4-dioxo-4-phenylbutanoate]

Appearance on dilution in water [1]: bright yellow fluorescent suspension
Structure (SMILES): CCOC(=O)C(=O)CC(=O)c1c[nH]c2ccccc12 [GS-312, Ethyl 4-(1H-indol-3-yl)-2,4-dioxobutanoate]

Appearance on dilution in water [1]: clear solution
Structure (SMILES): COC(=O)C1CNC(=O)C1=O (centres unmarked) [GS-500, Methyl 4,5-dioxopyrrolidine-3-carboxylate]
